Laboratory results reported in patent US20260137698A1, “CYCLIN-DEPENDENT KINASE 7 INHIBITORS” (JOINT STOCK COMPANY «BIOCAD», priority 2022, published 2026).

How the values were obtained:
[1] = Pharmacokinetics in mice plasma following oral administration; format: in vivo, CD-1 mice; conditions: dose 10 mg/kg; for F: absolute bioavailability, mice; for AUC(0-t) / Cmax / Tmax / half-life: male, CD-1, mouse, mice plasma; for half-life: read-out: T½ (converted)
Procedure: Pharmacokinetic studies of the compounds were carried out on CD-1 mice, males, aged about 8 weeks, weighing 16-29 g. The animals were given a single oral (PO) administration (intragastrically) at a dose of 10 mg/kg in a formulation in the form of a 0.2% solution of hydroxypropyl methylcellulose (HPMC) in a 5% aqueous solution of glucose and a single IV-bolus administration (intravenously) at a dose of 1.0 mg/kg for 1277 and at a dose of 2.0 mg/kg for substances CDK7_1187, CDK7_1225, CDK7_1229 and CDK7_1276 in a formulation comprising 0.2% DMSO in 5% aqueous solution of glucose.
For each substance, 21-30 animals were used for each dose of PO and IV administration. All mice were weighed and randomized before dosing.
3-5 animals were used for each time point. Each animal was sampled at one time point. At least 12 h before the start of the experiment, the animals were deprived of food while maintaining free access to water.
Animals from the PO and IV groups were subjected to blood sampling before administering the substance and after 0.5, 2, 4, 8, 12 and 24 h.
Blood was collected by cardiac puncture using the closed method. Blood was collected in a volume of 0.2 ml into polypropylene tubes comprising 20 μl of 5% EDTA. Blood plasma was separated by centrifugation at 10000 rpm for 10 minutes at 4±2° C. and transferred into clean labeled tubes.
Test blood plasma samples of mice from the experimental groups were obtained in a volume of 50 μl. Afterwards, […] of a solution of internal standard (tolbutamide (Sigma, T0891)) prepared in acetonitrile, at a concentration of 50 ng/ml, pre-cooled in the refrigerator at 2-8° C., was added to the samples, stirred in a vortex mixer (G560E, Scientific Industries) for 10 seconds and incubated at 4° C. for 15 minutes for protein precipitation. Samples were then centrifuged (5417R centrifuge, Eppendorf) at 1500 g for 10 minutes while cooling to 4° C. 150 μl of the supernatant were transferred to a 96-well plate for HPLC-MS/MS analysis. Quantitative determination of test compounds in blood plasma was carried out by absolute calibration method. The calibration curve was generated by analyzing plasma samples with supplementations of known amounts of the standard of the compound being determined. The lower limit of the quantitative determination of test compounds in blood plasma was 1 ng/ml, the analytical range of the technique was 1 ng/ml to 2000 ng/ml. The technique was partially validated in terms of selectivity, accuracy, precision, linearity, matrix effects, stability.
The Qtrap 5500 mass spectrometer (AB Sciex) in combination with the Agilent 1290 Infinity II HPLC liquid chromatograph (Agilent) and a cooling multisampler (Agilent 1290 Infinity II Multisampler G7167B) was used as an HPLC-MS/MS system. Chromatographic analysis was performed on a C18 reversed-phase HPLC column (YMC-Triart C18, 50*2 mm, 1.9 μm, YMC CO. Ltd). The mobile phase used was used a mixture of deionized water and acetonitrile supplemented with 0.1% formic acid in gradient mode, flow rate: 0.5 ml/min, column T=40° C., autosampler T=8° C., analysis time: 2.8 min. Mass spectrometric detection was performed in multiple reaction monitoring (MRM) mode. Precursor ions, fragment ions and collision energies for each substance were selected experimentally. Two Q1/Q3 transitions were used to record MRM chromatograms of the analyte and internal standard; one of transitions was used for quantitative calculations, the other one was used to confirm that the […] corresponds to a given substance. Based on the results of HPLC-MS/MS analysis of calibration samples using the Analyst 1.6.3 software, the calibration dependence of areas of chromatographic analyte peaks normalized to the signal of the internal standard on the concentration of the analyte was built.
Pharmacokinetic analysis was performed by non-compartmental method using the Phoenix WinNonlin 6.3 software package. […]

[2] = system: NCI-H69 xenografts (small cell lung cancer); experiment: Antitumor activity in vivo, subcutaneous NCI-H69 xenograft model; design: species or system BALB/c Nude mice
Procedure: The antitumor activity of CDK7_1187 in vivo was evaluated on a subcutaneous xenograft model of the NCl-H69 line (small cell lung cancer, ATCC® HTB-119™) transplanted to BALB/c Nude mice.
NCl-H69 cell line was cultured in RPMI-1640 medium (PanEco, Russia) with enrichment of the basal growth medium with L-glutamine at a concentration of 2 mM (PanEco, Russia) and 10% fetal bovine serum (Gibco, Thermo Fisher Scientific, USA).
The study used 20 BALB/c Nude mice (females) obtained from the Federal State Budgetary Scientific Institution “Federal Research Center Institute of Cytology and Genetics, Siberian Branch of Russian Academy of Sciences” (ICG SB RAS). BALB/c Nude mice were subcutaneously administered into the right lateral side of the body with […] of suspension containing 5×10^6 NCI-H69 tumor cells and Matrigel (Corning® Matrigel® Basement Membrane Matrix) at 1:1 ratio.
Linear dimensions of the tumor were determined using an electronic caliper. Volume of the tumor node was determined by the formula (1):
[formula] • where L and W are large and small diameters of the tumor node, respectively.
The efficacy of test product was measured by the index of tumor growth inhibition (TGI, %) calculated according to the formula (2):
[formula] • where Vc and Vp are mean volumes of the tumor node in the control group and the group of animals that received the test substance, respectively.
After achieving an average tumor volume of 130 mm^3, animals were divided into 2 groups of 10 animals, volume of the tumor node was used as a randomization criterion. The day of the first administration of the product was designated as day 0.
Test substance CDK7_1187 was administered intragastrically at a dose of 6 mg/kg daily, for 21 days. Before each administration, CDK7_1187 was diluted in 5% solution of glucose (Solopharm, Russia) and 0.1% solution of DMSO (Sigma, USA). The control group received a 5% solution of glucose and a 0.1% solution of DMSO in an analogous volume.
Statistical analysis was carried out using the GraphPad Prism 9 software package. Mann-Whitney U test was employed to assess the significance of differences when comparing the volumes of tumor nodes. Differences were identified as significant if p<0.05.

Structure (SMILES): CN1CCCc2c(-c3nc(N[C@H]4CCC(C)(C)NC4)ncc3C(F)(F)F)c[nH]c2C1=O [CDK7_1187, 3-(2-{[(3S)-6,6-dimethylpiperidin-3-yl]amino}-5-(trifluoromethyl)py-rimidin-4-yl)-7-methyl-1H,4H,5H,6H,7H, 8H-pyrrolo[2,3-c]azepin-8-one]
- F [1]: 72.7%
- AUC(0-t) [1]: 1160 ng·h/mL
- Cmax [1]: 309 ng/mL
- Tmax [1]: 0.5 h
- half-life [1]: 1.7 h
- tumor volume versus control group ([2]; 6 mg/kg daily, days 17 and 21, Mann-Whitney p<0.05): statistically significantly less
- index of tumor growth inhibition (TGI) ([2]; BALB/c Nude mice, 6 mg/kg intragastrically daily for 21 days, end of the observation period): 48%
- TGI index ([2]; Day 9, intragastrically 6 mg/kg daily): 10%
- TGI index ([2]; Day 13, intragastrically 6 mg/kg daily): 36%
- TGI index ([2]; Day 17, intragastrically 6 mg/kg daily): 40%
- TGI index ([2]; Day 21, intragastrically 6 mg/kg daily): 48%

Structure (SMILES): CC1(C)CC[C@H](Nc2ncc(C(F)(F)F)c(-c3c[nH]c4c3CCCN(C3CC3)C4=O)n2)CN1 [CDK7_1225, 7-cyclopropyl-3-(2-{[(3S)-6,6-dimethylpiperidin-3-yl]amino}-5-(trifluoromethyl)py-rimidin-4-yl)-1H,4H,5H,6H,7H, 8H-pyrrolo[2,3-c]azepin-8-one]
- F [1]: 102%
- AUC(0-t) [1]: 3540 ng·h/mL
- Cmax [1]: 712 ng/mL
- Tmax [1]: 2 h
- half-life [1]: 1.9 h

Structure (SMILES): CC(C)N1CCCc2c(-c3nc(N[C@H]4CCC(C)(C)NC4)ncc3C(F)(F)F)c[nH]c2C1=O [CDK7_1229, 3-(2-{[(3S)-6,6-dimethylpiperidin-3-yl]amino}-5-(trifluoromethyl)py-rimidin-4-yl)-7-(propan-2-yl)-1H,4H,5H,6H,7H, 8H-pyrrolo[2,3-c]azepin-8-one]
- F [1]: 102%
- AUC(0-t) [1]: 5790 ng·h/mL
- Cmax [1]: 1070 ng/mL
- Tmax [1]: 0.5 h
- half-life [1]: 2.5 h

Structure (SMILES): O=C1c2[nH]cc(-c3nc(N[C@H]4CCC5(CC5)NC4)ncc3C(F)(F)F)c2CCCN1C1CC1 [CDK7_1276, 3-(2-{[(6S)-4-azaspiro[2.5]octan-6-yl]amino}-5-(trifluoromethyl)py-rimidin-4-yl)-7-cyclopropyl-1H,4H,5H,6H,7H, 8H-pyrrolo[2,3-c]azepin-8-one]
- F [1]: 116%
- AUC(0-t) [1]: 7980 ng·h/mL
- Cmax [1]: 1510 ng/mL
- Tmax [1]: 0.5 h
- half-life [1]: 2 h

Structure (SMILES): CC(C)N1CCCc2c(-c3nc(N[C@H]4CCC5(CC5)NC4)ncc3C(F)(F)F)c[nH]c2C1=O [CDK7_1277, 3-(2-{[(6S)-4-azaspiro[2.5]octan-6-yl]amino}-5-(trifluoromethyl)py-rimidin-4-yl)-7-(propan-2-yl)-1H,4H,5H,6H,7H, 8H-pyrrolo[2,3-c]azepin-8-one]
- F [1]: 85.8%
- AUC(0-t) [1]: 3110 ng·h/mL
- Cmax [1]: 893 ng/mL
- Tmax [1]: 0.5 h
- half-life [1]: 3.8 h
